The text below walks through data of patent publication US12648952B2, “Methods of treatment using ICAM-modulating agents” (AVM Biotechnology, LLC, priority 2020, dated 2026).

Data set [1] relates to whole blood. Briefly: Ex vivo whole blood incubation, immune cell numbers (Study 6). Format: cell-based, mouse or human. As to the method:
The profound in vivo activity that is observed in naïve mice and in cancer models must therefore be mediated through the mobilized supercharged Natural Killer T cells, T cells and dendritic cells after AVM0703 HED 6 mg/kg and higher.

In the next data set the test system is splenocytes. Briefly: Ex vivo splenocyte viability by flow cytometry (Study 24). Format: cell-based, mouse. Here is the method: Splenocytes were cultured for 16 hours prior to assay execution.
Data set [2] has as its system lymphocytes, monocytes, NKT cells, T cells, dendritic cells. The data set is described as follows: In vivo immune cell mobilisation and ablation after high dose glucocorticoid. Further details: species or system mice. To be noted: HED 15 mg/kg and higher. From the text:
High doses of glucocorticoid exert powerful biological effects that will contribute to the treatment of lymphocyte-mediated diseases and cancers, as well as microbial diseases. […] This cell type is discussed in greater detail below.
CD4CD8 double positivity on CD3 T lymphocytes indicates a cytotoxic T cell. […] In vivo only lymphocytes, monocytes, some neutrophils and cancer cells have been ablated.
AVM_NKT cells are NKp46+ and Ly6G positive, indicating the potential to directly kill targets as well as to engulf them. The typical AVM_NKT summarized above are not CD1d restricted. […] In vivo, glucocorticoids ablate lymphocytes other than NK and NKT cells, and monocytes, within 6 hours after oral dosing of naïve mice. In tumor models the novel NKT and T cell are not observed in the blood. However, within 48 hours of dosing NKp46+ cells and Ly6G+ cells, which are not macrophages as they are negative for F4/80, can be found in formations within the tumors, surrounding regions of remaining viable tumor. This indicates the functional potency of these cells. In the tumor setting, the AVM novel immune cells are not observed in the blood. They appear to preferentially home to the abnormal cells, in this case cancer cells, and circulating normal monocytes and neutrophils are not depleted as they are in the naïve setting.

Data set [3] has as its system whole blood. The data set is described as follows: Ex vivo glucocorticoid comparison, whole blood CBC analysis. Format: cell-based. The note with it: overnight, room temperature.
For data set [4] the following is noted: cited from earlier work.
[5] abbreviates: ex vivo or in vitro concentrations equal to peak blood concentrations of HED 7-15 mg/kg or greater.

Take `C[C@@H]1C[C@H]2[C@@H]3CCC4=CC(=O)C=C[C@]4(C)[C@@]3(F)[C@@H](O)C[C@]2(C)[C@@]1(O)C(=O)CO` [dexamethasone base]: the “response of ex vivo whole blood” value with whole blood [1] (100 uM up to 500 uM) was “no response”. In the data set with whole blood [1] (500 μM dexamethasone base or 50 RU486, 16 hr, room temperature), the “numbers of lymphocytes, monocytes, eosinophils, basophils in whole blood” value was “no change in numbers”. The “lymphocyte-killing activity in whole blood” value in the data set on whole blood [1] (500 μM dexamethasone base or 50 RU486 alone) is given as “does not induce the lymphocyte-killing activity seen in in vivo experiments”. Also, the “response of isolated splenocytes” value with splenocytes (100 uM up to 500 uM) was “no response”. Besides, in the data set with splenocytes (after 4 hours), the “concentrations that do not trigger splenocyte cell death” value was “above 100 μM” and the “concentrations with direct killing activity on splenocytes” value was “lower than 100”.

On to `C[C@@H]1C[C@H]2[C@@H]3CCC4=CC(=O)C=C[C@]4(C)[C@@]3(F)[C@@H](O)C[C@]2(C)[C@@]1(O)C(=O)COP(=O)(O)O` [dexamethasone phosphate], for which the “direct apoptotic effect on whole blood” value with whole blood [1] (setting [5]) is reported as “no direct apoptotic effect”. For the same compound, in the data set with splenocytes (setting [5]), the “direct apoptotic effect on splenocytes” value was “no direct apoptotic effect”. Also, in data set [2], the “in vivo effects on colon, pancreas or bone” value was “no effects on colon, pancreas or bone”; the “induction of CD3-very-high T cells and CD11b-very-high dendritic cells” value is “CD11b-very-high dendritic cells are also induced”. In addition, the “differences between dexamethasone formulations in ex vivo CBC analysis” value in the data set on whole blood [3] is “no noticeable differences”.

For `C[C@]12C=CC(=O)C=C1CC[C@@H]1[C@@H]2C(=O)C[C@@]2(C)[C@H]1CC[C@]2(O)C(=O)CO` [prednisone], in data set [4], the biologic half-life result is on record as “about 20 hours”.
